# Reference: US8124634B2, “CB1 receptor modulators” (7TM Pharma A/S, priority 2006, dated 2012)
# Target: T1, human CB1 receptor (Homo sapiens, UniProt P21554)
# T1 construct: expressed in transfected cells; membranes
# Assay: Cannabinoid Receptor-1 functional assay: inhibition of CP55940-induced [35S]GTPγS binding to membranes of CHO-K1 cells expressing human CB1
# Assay type: biochemical
# Details: 3 nM CP55940, hCB1 membranes, [35S]GTPγS SPA; read-out: IC50 value for antagonizing a CB1 receptor agonist
# Source text: Transfection and Cell Culture—The cDNA encoding the human CB1 (Cannabinoid Receptor-1) receptor (GenBank accession number NM_016083) was cloned from a human adipose tissue cDNA library and cloned into the eukaryotic expression vector pcDNA3.1 (Invitrogen).
# Chinese Hamster Ovary cells (CHO-K1) stably expressing recombinant human CB1 were generated by transfecting the plasmid containing the coding sequence of the human CB1 receptor in CHO-K1 cells, using lipofectamin, according to the manufacturer instructions. Resistant clones were selected in the presence of 600 μg/ml G418 (Life technology). Stably transfected CHO-K1 cells were maintained in Ham's F-12 culture medium (Invitrogen), supplemented with 10% fetal calf serum (Invitrogen), 100 U/ml penicillin, 100 μg/ml streptomycin (Life Technology), and 600 μg/ml G418.
# Cannabinoid Receptor-1 Functional Assay.
# Functional activities of the above examples of compounds of the invention were assessed in vitro by measuring their ability to inhibit CP55940-induced [^35S]GTPγS binding to membranes prepared from CHO-K1 cells expressing the human CB1 receptor (described in Transfection and Cell Culture). CP55940 is a well known non-selective CB1 and CB2 receptor agonist (e.g Felder et al., 1995, Molecular Pharmacology, (48) 443-50). Membranes were prepared by a standard procedure. Briefly, cells were harvested using 10 mM EDTA and collected by centrifugation. Pelleted cells were homogenized in ice-cold 20 mM Hepes (pH 7.4),10 mM EDTA and protease inhibitors (Complete protease inhibitor cocktail tablet, Roche) using an Ultra Turrax Homogenizer. The homogenate was centrifuged at 14 000 rpm for 45 min. at 4° C. The resultant pellet was resuspended in the same buffer but with only 0.1 mM EDTA and was again centrifuged at 14 000 rpm for 45 min. at 4° C. The resulting pellet (membranes) was resuspended in 20 mM Hepes (pH 7.4), 0.1 mM EDTA, 2 mM MgCl2 and protease inhibitors and protein concentration was determined by Micro BCA Protein Assay Reagent Kit (Pierce Biotechnology) according to the manufacturer instructions. The [^35S]GYPγS SPA (Scintillation Proximity Assay) binding assay was performed by incubating 5 μg/well hCB1-membranes with 1 nM [^35S]GYPγS (Perkin Elmer—NEG 030H) in the presence of 3 nM of CP55940 and various concentrations of the test compounds at room temperature for 1 hr in 96-well microtiter plates. 0.4 mg/well SPA beads (PVT-WGA; RPNQ0001 Amersham Pharmacia Biotech) were then added and the incubation continued for further 30 min. on an orbital shaker. The assay buffer contained 50 mM HEPES (pH 7.5), 50 mM NaCl, 2.5 mM MgCl2, 0.1% BSA, 1 μM GDP and 100 μg/ml Saponin. Microtiter plates were centrifuged at 1500 rpm for 5 min. and radioactivity was read immediately using a Topcounter (PerkinElmer Life Sciences). Data were analyzed and IC50 values determined by non-linear regression using the Prism software (GraphPad Software, San Diego).
# T1 sequence (P21554 whole entry): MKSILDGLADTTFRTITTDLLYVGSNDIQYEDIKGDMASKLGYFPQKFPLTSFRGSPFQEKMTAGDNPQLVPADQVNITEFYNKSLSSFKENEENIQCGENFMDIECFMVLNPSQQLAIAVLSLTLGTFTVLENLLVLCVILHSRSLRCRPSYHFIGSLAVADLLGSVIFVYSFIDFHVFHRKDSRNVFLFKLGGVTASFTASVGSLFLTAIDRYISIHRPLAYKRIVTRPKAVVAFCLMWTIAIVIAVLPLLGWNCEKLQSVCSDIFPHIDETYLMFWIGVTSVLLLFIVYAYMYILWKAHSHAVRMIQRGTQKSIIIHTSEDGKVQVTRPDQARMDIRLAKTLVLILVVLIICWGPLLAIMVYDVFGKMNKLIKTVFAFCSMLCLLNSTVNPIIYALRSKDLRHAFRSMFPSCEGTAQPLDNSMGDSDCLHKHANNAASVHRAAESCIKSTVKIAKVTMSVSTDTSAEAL
row,SMILES,IC50 [nM]
1,"CC(C)(NC(=O)c1nn(-c2ccccc2Cl)c(-c2ccc(Cl)cc2)c1CC(=O)O)c1ccc(F)cc1 [Compound [1.1], {1-(2-Chloro-phenyl)-5-(4-chloro-phenyl)-3-[1-(4-fluoro-phenyl)-1-methyl-ethylcarbamoyl]-1H-pyrazol-4-yl}-acetic acid]",< 300
2,"C[C@@H](NC(=O)c1nn(-c2ccccc2Cl)c(-c2ccc(Cl)cc2)c1OCC(=O)O)c1ccc(C(F)(F)F)cc1 [Compound [1.3], {1-(2-Chloro-phenyl)-5-(4-chloro-phenyl)-3-[(R)-1-(4-trifluoromethyl-phenyl)-ethylcarbamoyl]-1H-pyrazol-4-yloxy}-acetic acid]",< 300
3,"C[C@H](c1ccc(C(F)(F)F)cc1)N(C)C(=O)c1nn(-c2ccccc2Cl)c(-c2ccc(Cl)cc2)c1CC(=O)O [Compound [1.7], (1-(2-Chloro-phenyl)-5-(4-chloro-phenyl)-3-{methyl-[(R)-1-(4-trifluoromethyl-phenyl)-ethyl]-carbamoyl}-1H-pyrazol-4-yl)-acetic acid]",< 300
4,"CC(C(=O)O)c1c(C(=O)N(C)[C@H](C)c2ccc(C(F)(F)F)cc2)nn(-c2ccccc2Cl)c1-c1ccc(Cl)cc1 (stereo partly drawn) [Compound [1.11], 2-{1-(2-Chloro-phenyl)-5-(4-chloro-phenyl)-3-{methyl-[(R)-1-(4-trifluoromethyl-phenyl)-ethyl]-carbamoyl}-1H-pyrazol-4-yl}-propionic acid]",< 300
5,"C[C@H](c1ccc(C(F)(F)F)cc1)N(C)C(=O)c1nn(-c2ccccc2Cl)c(-c2ccc(Cl)cc2)c1C(O)C(=O)O (stereo partly drawn) [Compound [1.12], (1-(2-Chloro-phenyl)-5-(4-chloro-phenyl)-3-{methyl-[(R)-1-(4-trifluoromethyl-phenyl)-ethyl]-carbamoyl}-1H-pyrazol-4-yl)-2-hydroxyacetic acid]",< 300
6,"CC(NC(=O)c1nn(-c2ccccc2Cl)c(-c2ccc(Cl)cc2)c1Cc1nnn[nH]1)c1ccc(Br)cc1 (centres unmarked) [Compound [2.1], 1-(2-Chloro-phenyl)-5-(4-chloro-phenyl)-4-(1H-tetrazol-5-ylmethyl)-1H-pyrazole-3-carboxylic acid [1-(4-bromo-phenyl)-ethyl]-amide]",< 300
7,"C[C@@H](NC(=O)c1nn(-c2ccccc2Cl)c(-c2ccc(Cl)cc2)c1OCc1nnn[nH]1)c1ccc(C(F)(F)F)cc1 [Compound [3.1], 1-(2-Chloro-phenyl)-5-(4-chloro-phenyl)-4-(1H-tetrazol-5-ylmethoxy)-1H-pyrazole-3-carboxylic acid [(R)-1-(4-trifluoromethyl-phenyl)-ethyl]-amide]",< 300
8,"C[C@H](Oc1c(C(=O)N[C@H](C)c2ccc(Br)cc2)nn(-c2ccccc2Cl)c1-c1ccc(Cl)cc1)C(=O)O [[1.2], (S)-2-[3-[(R)-1-(4-Bromo-phenyl)-ethylcarbamoyl]-1-(2-chloro-phenyl)-5-(4-chloro-phenyl)-1H-pyrazol-4-yloxy]-propionic acid]",300 to 3000
9,"C[C@@H](Oc1c(C(=O)N[C@H](C)c2ccc(Br)cc2)nn(-c2ccccc2Cl)c1-c1ccc(Cl)cc1)C(=O)O [[1.4], (R)-2-[3-[(R)-1-(4-Bromo-phenyl)-ethylcarbamoyl]-1-(2-chloro-phenyl)-5-(4-chloro-phenyl)-1H-pyrazol-4-yloxy]-propionic acid]",< 300
10,"C[C@@H](NC(=O)c1nn(-c2ccccc2Cl)c(-c2ccc(Cl)cc2)c1CC(=O)O)c1ccc(C(F)(F)F)cc1 [[1.5], {1-(2-Chloro-phenyl)-5-(4-chloro-phenyl)-3-[(R)-1-(4-trifluoromethyl-phenyl)-ethylcarbamoyl]-1H-pyrazol-4-yl}-acetic acid]",< 300
11,"C[C@@H](NC(=O)c1nn(-c2ccccc2Cl)c(-c2ccc(Cl)cc2)c1CC(=O)O)c1ccc(Br)cc1 [[1.6], [3-[(R)-1-(4-Bromo-phenyl)-ethylcarbamoyl]-1-(2-chloro-phenyl)-5-(4-chloro-phenyl)-1H-pyrazol-4-yl]-acetic acid]",< 300
